Data from patent US20150083146A1, “PERSONAL VAPORIZER LIQUID FOR E[…]-SOLUBLE COMPOUNDS AND RESINS” (Verso PV, LLC, priority 2013, published 2015).
Counter-ions that a name gives are not always drawn.

What was measured:
[1] = Viscosity rating of liquid compositions (cannabis extract emulsions in propylene glycol formulas); format: physicochemical; conditions: cannabis extract emulsion in propylene glycol
Description: The liquid composition comprising the oil-soluble compounds or resin should have a density and viscosity suitable for use in a personal vaporizer. […] For example, a liquid composition having a […] of about 100 cps, alternatively about 75 cps or less, alternatively about 50 cps or less, alternatively about 42 cps (the viscosity of propylene glycol) or more. The foregoing values can be combined to form a range. Viscosity values are determined at 25° C. using standard equipment for measuring viscosity of liquids.
Test Sample preparation: For each sample, the appropriate quantity of cannabis extract and liquid formula were added to a vial. The vial was placed on a hot plate at 85° C. until the extract melted. The vial was gently shaken to disperse the extract. Each of the formula recipes were tested with five concentrations of extract: 5%, 10%, 20%, 33%, and 50%, by mass. For example: to produce a 10% extract sample we placed 9.00 grams of one of the stock oil emulsifier formulas, and 1.00 grams of one of cannabis extracts in a 20 ml scintillation vial and applied heat. The components remained separate until heat and agitation are applied.
The viscosity of each sample is rated, in which “1” indicates lower viscosity, “2” indicates moderate viscosity, and “3” indicates higher viscosity.

[2] = Emulsion stability (visual separation test; storage, sunlight, temperature); format: physicochemical; conditions: after mixing with heat and agitation; initial observation
Excerpt: In some embodiments of the present invention, a stable emulsion containing oil-soluble compounds and/or resins in a liquid base is provided. The stable emulsion may be stored in a container suitable for delivery to a consumer. The stable emulsion may be provided in a vial, cartridge or other container. Preferably the container is air-tight. The stability of the emulsion may be measured or quantified by no visible separation after 30 days.
In this example, a series of liquid compositions were prepared and evaluated for their emulsion stability. Varying compositions were tested that utilized different lipid solubilizers (8 in total). The liquid base in these compositions was propylene glycol. Test samples (liquid compositions including cannabis extract) were subjected to a range of conditions: temperature, sunlight, extended storage, and varied ingredient concentration. Various types of cannabis extract were also tested. For each test sample, observations were noted about the color, viscosity, general visual appearance of each sample, and any changes seen over time.
Materials and Methods: Testing was performed in 20 ml glass scintillation vials. Mixing of the liquid base and lipid solubilizer was done entirely in borosilicate glassware, and ingredients were measured by mass using an AND EJ-610 balance. Samples were heated using a Scilogex MS7-H55O digitally controlled hot plate. Cannabis extract was produced using an Apeks closed-system solvent extractor running instrument grade propane. […]
Formula preparation: Formulas using lipid solubilizers were prepared in three concentrations: 0.1%, 0.5% and 1.0% by mass, in a solvent base of propylene glycol. […] Stock solutions were made of each of the eight lipid solubilizers at each of the three concentrations, producing a total of 24 different formulas at a quantity of approximately 500 ml each. […] After cooling the formula was ready for use. […]
Test Sample preparation: For each sample, the appropriate quantity of cannabis extract and liquid formula were added to a vial. […]

Row | Compound | viscosity (in words) [1] | formation of a stable emulsion [2]
1 | CCCCCCCC(=O)OCC(O)CO (centres unmarked) [MCM C8, Glyceryl Caprylate] | least viscosity | –
2 | CCCCCCCCCCCC(=O)OCC(O)CO (centres unmarked) [Monolaurin, Glyceryl Monolaurate] | – | effective and flavorless emulsifier
3 | CC(=O)OCC(COC(C)=O)OC(C)=O [triacetin, Triacetin] | – | appeared to perform adequately
4 | CCOC(=O)CC(O)(CC(=O)OCC)C(=O)OCC [triethyl citrate, Triethyl Citrate] | – | appeared to perform adequately
5 | Propylene Glycol Monolaurate [PG-12] | most viscous | –
